≈ marks a conversion by molar mass, not a printed value. Like-named read-outs stand apart in the source and are kept apart here.
Legend:
[1] = test system: N. gonorrhoeae ATCC 19424 and ATCC 49226; assay: MIC, summary over both strains; format: cell-based, Neisseria gonorrhoeae; details: for times more active: compared with imipenem
PBP2 [2] = molecular target: T1, PBP2 (Neisseria gonorrhoeae, UniProt P08149, H541N); assay: PBP-binding assay (Bocillin FL) in isolated membrane preparations; design: species or system Neisseria gonorrhoeae ATCC 19424
T1 construct: endogenous in cells; host or cells: N. gonorrhoeae ATCC 19424, isolated membrane preparation

PBP1 [3] = molecular target: T2, PBP1 (Neisseria gonorrhoeae, UniProt O05131); assay: as above; details: strain ATCC 19424
T2 construct: endogenous in cells; host or cells: N. gonorrhoeae ATCC 19424, isolated membrane preparation
Source text: (§1) Bacterial membranes were collected by ultracentrifugation.

[4] = test system: N. gonorrhoeae ATCC 49226; assay: MIC, CLSI broth microdilution; format: cell-based, Neisseria gonorrhoeae; details: for MIC: strain ATCC 49226
PBP1 [5] = molecular target: T3, PBP1 (Neisseria gonorrhoeae, UniProt O05131, A375T/F666S); assay: PBP-binding assay (Bocillin FL) in isolated membrane preparations; design: species or system Neisseria gonorrhoeae ATCC 49226
T3 construct: endogenous in cells; host or cells: N. gonorrhoeae ATCC 49226, isolated membrane preparation
Source text: as §1

[6] = test system: N. gonorrhoeae ATCC 19424; assay: MIC, CLSI broth microdilution; format: cell-based; details: Neisseria gonorrhoeae, ATCC19424, strain ATCC 19424
PBP3 [7] = molecular target: T4, PBP3 (Neisseria gonorrhoeae, UniProt Q5FAB9); details: read-out: IC50 PBP3; strain ATCC 19424; membrane preparation, 30 min drug then Bocillin FL
T4 sequence (Q5FAB9 22-469): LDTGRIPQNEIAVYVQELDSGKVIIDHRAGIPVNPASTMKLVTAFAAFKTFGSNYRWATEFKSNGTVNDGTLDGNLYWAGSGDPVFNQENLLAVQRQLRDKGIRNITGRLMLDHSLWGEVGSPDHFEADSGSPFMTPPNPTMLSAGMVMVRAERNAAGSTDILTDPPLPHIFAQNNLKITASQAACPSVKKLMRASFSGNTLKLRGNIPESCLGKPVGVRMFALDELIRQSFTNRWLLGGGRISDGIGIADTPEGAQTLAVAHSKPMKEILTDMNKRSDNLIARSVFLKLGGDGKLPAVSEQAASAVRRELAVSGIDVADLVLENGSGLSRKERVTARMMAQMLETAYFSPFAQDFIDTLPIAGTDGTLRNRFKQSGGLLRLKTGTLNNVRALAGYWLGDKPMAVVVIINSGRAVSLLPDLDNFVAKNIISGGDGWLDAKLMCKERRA

PBP3 [8] = molecular target: T4, PBP3; details: read-out: IC50 PBP3; strain ATCC 49226; membrane preparation, 30 min drug then Bocillin FL
PBP2 [9] = molecular target: T5, PBP2 (Neisseria gonorrhoeae, UniProt P08149, A510V/A516G/A574V/F504L/H541N/I556V/I566V/K555Q/P552V); assay: biochemical; format: binding, Neisseria gonorrhoeae ATCC 49226; details: IC50 PBP2, strain ATCC 49226; membrane preparation, 30 min drug then Bocillin FL
T5 construct: endogenous in cells; host or cells: N. gonorrhoeae ATCC 49226, isolated membrane preparation

PBP1, PBP2 and PBP3 [10] = molecular target: PBP1, PBP2 and PBP3 (Neisseria gonorrhoeae, UniProt P08149, H541N); format: binding, Neisseria gonorrhoeae ATCC 19424; details: read-out: min. IC50 (minimum observed IC50 value); strain ATCC 19424
PBP1, PBP2 and PBP3 [11] = molecular target: PBP1, PBP2 and PBP3 (Neisseria gonorrhoeae, UniProt P08149, A510V/A516G/A574V/F504L/H541N/I556V/I566V/K555Q/P552V); format: binding, Neisseria gonorrhoeae ATCC 49226; details: read-out: min. IC50 (minimum observed IC50 value); strain ATCC 49226
[12] = membrane preparation, 30 min drug then Bocillin FL, read-out: IC50 PBP1 (converted)
[13] = Neisseria gonorrhoeae, ATCC49226, read-out: MIC
[14] = Neisseria gonorrhoeae, ATCC49226, read-out: MIC (Table S1)
[15] = IC50 PBP1, strain ATCC 49226, membrane preparation, 30 min drug then Bocillin FL
[16] = IC50 PBP2, strain ATCC 19424, membrane preparation, 30 min drug then Bocillin FL

Row | Structure (SMILES) | times more active [1] [times] | IC50 (PBP2 [2]; IC50 PBP2 (Table S1), strain ATCC 19424) [nM] | IC50 (PBP1 [3]; [12]) [nM] | MIC [4, 13] [µg/mL] | MIC [4, 14] [µg/mL] | IC50 (PBP1 [5]; [15]) [nM] | MIC ([6]; read-out: MIC) [µg/mL] | MIC ([6]; read-out: MIC (Table S1)) [µg/mL] | IC50 (PBP2 [2]; [16]) [nM] | IC50 (PBP3 [7]) [nM] | IC50 (PBP1 [3]; read-out: IC50 PBP1 (Table S1) (converted)) [nM] | IC50 (PBP1 [5]; IC50 PBP1 (Table S1), strain ATCC 49226) [nM] | IC50 (PBP3 [8]) [nM] | IC50 (PBP2 [9]) [nM] | IC50 (PBP1, PBP2 and PBP3 [10]) [nM] | IC50 (PBP1, PBP2 and PBP3 [11]) [nM] | MIC [4] [µg/mL] | IC50 (PBP2 [2]; strain ATCC 19424, membrane preparation, 30 min drug then Bocillin FL, read-out: IC50 PBP2 (converted)) [nM] | MIC increase for strain ATCC 49226 ([4]; ATCC 49226 versus ATCC 19424) [fold] | MIC ([1]; Neisseria gonorrhoeae, across the two ATCC strains) [µg/mL]
1 | C[C@@H](O)[C@H]1C(=O)N2C(C(=O)O)=C(S[C@@H]3CN[C@H](C(=O)N(C)C)C3)[C@H](C)[C@H]12 [MEM, meropenem] | 8 | 104 | 626 | 0.016 (≈ 0.0417 µM) | 0.016 (≈ 0.0417 µM) | 1170 | 0.008 (≈ 0.0209 µM) | 0.008 (≈ 0.0209 µM) | – | – | – | – | – | – | – | – | – | – | – | –
2 | C[C@]1(Cn2ccnn2)[C@H](C(=O)O)N2C(=O)C[C@H]2S1(=O)=O [TZ, tazobactam] | – | – | 63300 | 1 (≈ 3.33 µM) | 1 (≈ 3.33 µM) | 83300 | 0.125 (≈ 0.416 µM) | 0.125 (≈ 0.416 µM) | 3560 | 15700 | 64000 | 83600 | 18900 | 4800 | 3560 | 4800 | – | – | – | –
3 | CO[C@@]1(NC(=O)Cc2cccs2)C(=O)N2C(C(=O)O)=C(COC(N)=O)CS[C@@H]21 [FOX, cefoxitin] | – | – | 1360 | 0.5 (≈ 1.17 µM) | 0.5 (≈ 1.17 µM) | 2130 | 0.25 (≈ 0.585 µM) | 0.25 (≈ 0.585 µM) | 912 | – | – | – | – | > 4680 | – | – | – | – | – | –
4 | Cn1c(N)c(NC(=O)NCCN)c[n+]1CC1=C(C(=O)O)N2C(=O)[C@@H](NC(=O)/C(=N\OC(C)(C)C(=O)[O-])c3nsc(N)n3)[C@H]2SC1 [TOL, ceftolozane] | – | – | > 3000 | 0.25 (≈ 0.375 µM) | 0.25 (≈ 0.375 µM) | > 3000 | 0.032 (≈ 0.048 µM) | 0.032 (≈ 0.048 µM) | 60 | > 3000 | – | – | > 3000 | 405 | 60 | 405 | 0.250 (≈ 0.375 µM) | – | – | –
5 | CCN1CCN(C(=O)N[C@@H](C(=O)N[C@@H]2C(=O)N3[C@@H]2SC(C)(C)[C@@H]3C(=O)O)c2ccccc2)C(=O)C1=O [PIP, piperacillin] | – | – | > 3860 | – | 0.125 (≈ 0.242 µM) | > 3860 | 0.001 (≈ 0.00193 µM) | 0.001 (≈ 0.00193 µM) | – | – | – | – | – | 19.3 | 38.6 | 19.3 | – | 38.6 | 125 | –
6 | CO/N=C(\C(=O)N[C@@H]1C(=O)N2C(C(=O)[O-])=C(C[N+]3(C)CCCC3)CS[C@H]12)c1csc(N)n1 [FEP, cefepime] | – | – | > 4160 | 0.032 (≈ 0.0666 µM) | 0.032 (≈ 0.0666 µM) | > 4160 | 0.008 (≈ 0.0166 µM) | 0.008 (≈ 0.0166 µM) | – | – | – | – | – | – | – | – | – | – | – | –
7 | C[C@@H](O)[C@H]1C(=O)N2C(C(=O)O)=C(S[C@@H]3CN[C@H](C(=O)Nc4cccc(C(=O)O)c4)C3)[C@H](C)[C@H]12 [ETP, ertapenem] | 8 | – | 1010 | 0.008 (≈ 0.0168 µM) | 0.008 (≈ 0.0168 µM) | 1200 | 0.004 (≈ 0.00841 µM) | 0.004 (≈ 0.00841 µM) | 84.1 | – | – | – | – | 21 | – | – | – | – | – | –
8 | C[C@@H](O)[C@H]1C(=O)N2C(C(=O)O)=C(SCCN=CN)C[C@H]12 [IPM, imipenem] | – | – | 1340 | 0.064 (≈ 0.214 µM) | 0.064 (≈ 0.214 µM) | 2670 | 0.032 (≈ 0.107 µM) | 0.032 (≈ 0.107 µM) | 234 | – | – | – | – | 568 | – | – | – | – | – | 0.032 to 0.064 (≈ 0.107 to 0.214 µM)

Reference: paper PMC10269775, “Penicillin-Binding Protein Occupancy Dataset for 18 β-Lactams and 4 β-Lactamase Inhibitors in Neisseria gonorrhoeae” (Microbiology Spectrum, 2023)
